{"source": "paper PMC9827864", "about": "“In Situ Inhibitor Synthesis and Screening by Fluorescence Polarization: An Efficient Approach for Accelerating Drug Discovery” (Angewandte Chemie (International Ed. in English), 2022)", "key": {"[1]": {"test_system": "ICR mice", "assay": "Subacute oral toxicity assay", "format": "in vivo", "method": "6. Subacute and acute oral toxicity assay\nThe experimental mice (SPF, ICR, male and female) were obtained from Nantong University (permit number: SCXK (Su) 2019-0001). All animal related experiments were conducted under China Pharmaceutical University guidelines (certification of using the housing facility for laboratory animals: SYXK (Su) 2018-0019) IACUC approved protocols in compliance with the guide for the care and use of laboratory animals (number: 202013705).\n6.1 Subacute oral toxicity assay\nICR mice were divided into 8 groups (n = 6), including 15 mg·kg-1, 50 mg·kg-1, 100 mg·kg-1 and vehicle groups for males and females, respectively. […] The body weight of the mice was recorded. […]\nExperimental mice were treated with 17 through oral administration once. Body weight and the heart, kidney, liver, spleen, and lung weight were recorded. Blood was collected, and the samples were analyzed by blood biochemistry assays (CRE, AST, ALT, BUN).\nA solution of aldehyde B82 (60 μL, 0.5 M, DMSO-d6), 4-methoxyaniline (2 μL, 6.0 M, DMSO -d6), mesitylene (100 μL, 0.1 M, DMSO - d6), and acylhydrazide A3 (100 μL, 0.1 M, DMSO -d6) was added to a mixture of DMSO -d6 (188 μL) and FP buffer D 2O (50 μL), in a 5 mm NMR tube; following incubation at room temperature, the sample was evaluated by a Bruker AV-400 instrument. […]"}, "[2]": {"test_system": "C57BL/6J mouse models of anemia induced by cisplatin", "assay": "Improvement of anemia induced by cisplatin administration", "format": "in vivo", "details": "cisplatin-induced anemia mice; for Improvement of anemia (%): po", "method": "5. Pharmacodynamic assay\nThe experimental mice (SPF, […], male) were obtained from SPF (Beijing) Biotechnology Co., Ltd (permit number: SCXK (Jing) 2019-0010). All animal related experiments were conducted under a China Pharmaceutical University (the certification of using the housing facility of laboratory animals: SYXK (Su) 2018 -0019) IACUC approved protocol in compliance with the guide for the care and use of laboratory animals (number: 202013705). […]\nRepresentative compounds and Roxadustat were formulated in normal saline solution. […]\nChina Pharmaceutical University (ADVIA 2120 hematology system). […]\n5.3 Improvement of anemia induced by cisplatin administration\nC57BL/6J mice were treated with cisplatin ( po, 7 mg·kg-1) on days 0, 7, 14, and 28 of the experiment. On the 29th day, the animals were randomized into sham, control, and treated groups (n=5). […]\ntreatment anemia caused by cisplatin. The mice were treated with the compounds every alternate day for 30 days. the test sample is obtained via orbital venous plexus. The hemoglobin of samples was analyzed in the center for new drug safety evaluation and research at China Pharmaceutical University (ADVIA 2120 hematology system)."}, "[3]": {"assay": "Metabolic stability in rat liver microsomes", "format": "in vitro ADME", "method": "page 15: SUPPORTING INFORMATION 3. Molecular Modeling A structure of PHD2 in complex with Fe and a 2OG competing inhibitor (PDB ID: 4KBZ) was obtained from PDB website. The structure files of protein and compounds for docking were prepared using the Discovery Studio (DS) 2020 software. A water molecule HOH624, conserved in the active binding site of PHD2, was retained during the docking. Residues of PHD2 around the native ligand […] Subsequently, the ligand was removed; the Fe (II) was retained during the docking. Compounds were docked into the binding sites using GOLD 5.1. Docking procedures were performed using the default setting with 100 genetic algorithm (GA) runs of ligands. […] The samples were centrifuged at 5000 rpm f or 10 min; the supernatants were then analyzed by HPLC. […] Subsequently, these samples were analyzed for reticulocytes in the center for new drug safety evaluation and research of China Pharmaceutical University (ADVIA 2120 hematology system). 5.2 In vivo EPO increased assay Plasma EPO was evaluated using the erythropoietin quantikine ELISA kit for mice (MEP00B). […] Plasma was collected by centrifugation at 3000 rpm, these plasmas were detected by E PO ELISA. […] The hemoglobin of samples was analyzed in the center for new drug safety evaluation and research at China Pharmaceutical University (ADVIA 2120 hematology system). […]"}}, "note": "Entries after “also recorded” stand apart in the source; their conditions may differ."}
{"smiles": "O=C(N/N=C/c1cccc(O)c1Cl)c1cnc(-c2cccnn2)[nH]c1=O", "note": "[compound 17]", "values": [{"measurement": "H&E staining of major organs", "setting": "[1]; 100 mg kg−1 oral, alternate days for two weeks", "value": "normal architecture comparable to the vehicle"}, {"measurement": "subacute oral toxicity findings (behavior, body weight, organ/body weight ratio, BUN, ALT, AST, CRE)", "setting": "[1]; oral, every other day for 14 days, 10 or 15, 50 and 100 mg kg−1", "value": "no obvious abnormality; also recorded: did not exhibit any treatment-associated adverse effects"}, {"measurement": "hemoglobin (Hb) levels", "setting": "[2]; po 5, 10, 20 mg kg−1, every alternate day for 30 days", "value": "increased in a dose‐dependent manner"}, {"measurement": "Improvement of anemia (%)", "setting": "[2]; 5 mg·kg^-1", "value": 31.8, "unit": "%"}, {"measurement": "Improvement of anemia (%)", "setting": "[2]; 10 mg·kg^-1", "value": 51.5, "unit": "%"}, {"measurement": "Improvement of anemia (%)", "setting": "[2]; 20 mg·kg^-1", "value": 90.9, "unit": "%"}, {"measurement": "compound present (remaining) in liver microsomes", "setting": "[3]; after 50 min, 1 μM, 0.5 mg/mL", "value": "> 80", "unit": "%"}, {"measurement": "half-life at 1 μM", "setting": "[3]; pH 7.4, read-out: t1/2 in liver microsomes", "value": "> 1.67", "unit": "h"}]}
